Laboratory results: ChEMBL document CHEMBL1142615, “Polyoxygenated dysidea sterols that inhibit the binding of [I125] IL-8 to the human recombinant IL-8 receptor type A” (J Nat Prod, 2000)

Biological target: T1, C-X-C chemokine receptor type 1 (Homo sapiens, UniProt P25024)
T1 sequence (P25024 whole entry): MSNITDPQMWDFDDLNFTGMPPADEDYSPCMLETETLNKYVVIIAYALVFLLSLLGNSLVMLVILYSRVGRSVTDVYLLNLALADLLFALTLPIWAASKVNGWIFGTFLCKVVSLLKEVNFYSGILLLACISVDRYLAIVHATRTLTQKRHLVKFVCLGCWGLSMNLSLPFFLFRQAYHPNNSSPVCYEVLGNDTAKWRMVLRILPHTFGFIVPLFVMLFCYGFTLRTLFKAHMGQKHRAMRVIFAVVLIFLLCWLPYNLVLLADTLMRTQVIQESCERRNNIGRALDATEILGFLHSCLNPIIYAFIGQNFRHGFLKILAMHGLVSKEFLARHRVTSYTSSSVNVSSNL
Assay: Displacement of [125I]IL8 from human recombinant IL8 type A receptor

Row | SMILES | IC50 [µM]
1 | CC(=O)O[C@H]1CC[C@]2(C)C3=C([C@H](OC(C)=O)[C@H](OC(C)=O)[C@@]2(O)C1)[C@@H]1CC[C@H]([C@H](C)CCCC(C)C)[C@@]1(C)C[C@H]3O | 5.5
2 | CC(=O)O[C@H]1C=C2[C@@H]3CC[C@H]([C@H](C)CCCC(C)C)[C@@]3(C)C[C@H]3O[C@@]23[C@@]2(C)CC[C@H](O)C[C@]12O | 4.5
3 | CC(=O)O[C@H]1C2=C([C@H](O)C[C@]3(C)[C@@H]([C@H](C)CCCC(C)C)CC[C@@H]23)[C@@]2(C)CC[C@H](O)C[C@]2(O)[C@H]1OC(C)=O | 20
